Measured values: patent US20090247644A1, “MEMANTINE FORMULATIONS” (FOREST LABORATORIES HOLDINGS LIMITED, priority 2008, published 2009)
Where a name gives a salt, the structure may show the parent alone.

How the values were obtained:
Assay type in all cases: physicochemical
[1] = Angle of repose, Hosakawa Micron powder tester; settings: hydrochloride
Procedure: For pharmaceutical powders, a lower angle of repose value indicates better flow characteristics. The angle of repose was measured using a Hosakawa Micron powder tester, Model PT-N (Hosokawa Micron Powder systems, Summit, N.J.) using the instructions provided by the vendor. Also see Pharmaceutical Dosage Forms, Tablets, Volume 1, Herbert A. Lieberman, Leon Lachman, Joseph B. Schwartz, 1989, 2nd Ed.

[2] = Aspect ratio by scanning electron microscopy; settings: ratio of maximum length to minimum width; hydrochloride
Text: The aspect ratio refers to the ratio of the maximum length of a crystal to its minimum width. At an aspect ratio of 1, a crystal has an isometric crystal habit. With the aspect ratio decreasing below 1, the crystal habit becomes more and more plate-like. In contrast, when the aspect ratio increases more and more above 1, the crystal approaches a needle-like crystal habit. In accordance with the present invention, cubic-shaped crystals of memantine hydrochloride have an aspect ratio of preferably below about 5, such as, below about 3 (3.0), e.g., below about 2 (2.0). The lower limit of the aspect ratio is not critical. The aspect ratio is determined by means of scanning electron microscopy (SEM). The sample is spread onto a pure aluminum support and subsequently sputter-coated with a thin layer of Pd/Au (thickness in the nanometer range; sputter coater SCD 030 (Balzers)). Using a JSM 6400 Scanning Electron Microscope (JEOL, Japan) at an acceleration voltage of 20 keV and a working distance of 15 mm, SEM images are taken at 150-fold magnification. Electronic filtering and thresholding is used to improve the separation of particles in binary images from the background. For image analysis, ANALYSIS software version 5.0 (SIS, Muenster, Germany) is used. […]

[3] = Bulk density and tap density, Varian Tapped Density tester; settings: hydrochloride
Procedure: Bulk Density and Apparent Density after Tamping (Tap Density)
The bulk density and apparent density were measured using a Varian Tapped Density tester (Varian Inc.,) using the instructions provided by the vendor. Also see USP 29 (Tap-Bulk-Density).

[4] = Flowability, Jenike and Johanson Sifting Segregation tester (time for 200 g to fall through hopper orifice); settings: 200 g material, hydrochloride
Procedure: The flowability of the equant-shaped crystals of memantine was measured using a Jenike and Johanson […] Segregation tester (Jenike and Johanson, Tyngsboro, Mass.). The time taken for 200 g of material to fall through the circular orifice of the hopper was measured. Two different hoppers were used: a shallow angle cone (Hopper A, 35° from horizontal) and a steep angle cone (Hopper B, 75° from horizontal). […] See, ASTM Standard D6941-03, and A. Alexander et al., Pharmaceutical Technology, Yearbook 2000, pp. 6-21.

[5] = Particle size distribution by laser diffraction; settings: equant: Helos BF with Rodos; needle: Mastersizer 2000; hydrochloride
Procedure: The particle size distribution (average d90, d50 and d10 values) of the equant-shaped crystals of memantine was measured by Laser Diffraction technique using a Helos BF with Rodos instrument (Sympatec Inc, Lawrenceville, N.J.). The particle size distribution of the needle-shaped crystals of memantine was measured using a Mastersizer 2000 instrument (Malvern Instruments Limited, Worcestershire, UK).

[6] = Hopper A (shallow angle cone, 35° from horizontal)
[7] = Hopper B (steep angle cone, 75° from horizontal)

SMILES	Angle of Repose [1] [°]	Aspect Ratio [2]	Bulk Density [3] [g/cc]	Compressibility Index [3]	Tap Density [3] [g/cc]	Flowability [4, 6]	Flowability ([4]; Hopper A (shallow angle cone, 35° from horizontal), listed as equant-shaped crystals)	Flowability [4, 7]	Flowability ([4]; Hopper B (steep angle cone, 75° from horizontal), listed as equant-shaped crystals)	PSD d10 [5] [μm]	PSD d50 [5] [μm]	PSD d90 [5] [μm]	Flowability ([4]; Hopper A (shallow angle cone, 35° from horizontal), listed as needle-shaped crystals)	Flowability ([4]; Hopper B (steep angle cone, 75° from horizontal), listed as needle-shaped crystals)
CC12CC3CC(C)(C1)CC(N)(C3)C2 [Equant-shaped crystals of Memantine HCl, memantine hydrochloride]	43.1	1.6	0.51	16	0.61	38.3 g/s	about 38 g/s	13.6 g/s	about 14 g/s	10	205	376		
CC12CC3CC(C)(C1)CC(N)(C3)C2 [Needle-shaped crystals of Memantine HCl, memantine hydrochloride]	66.2	11.4	0.30	40	0.50	Does not flow		Does not flow		18.8	113.8	1229.4	do not flow	do not flow
